{
  "source": "patent US10377755B2",
  "about": "“BCL-2 inhibitors” (Newave Pharmaceutical Inc., priority 2016, dated 2019)",
  "key": {"Bcl-w": {"molecular_target": "Bcl-w (Homo sapiens (Human), UniProt Q92843)", "sequence (Q92843 whole entry)": "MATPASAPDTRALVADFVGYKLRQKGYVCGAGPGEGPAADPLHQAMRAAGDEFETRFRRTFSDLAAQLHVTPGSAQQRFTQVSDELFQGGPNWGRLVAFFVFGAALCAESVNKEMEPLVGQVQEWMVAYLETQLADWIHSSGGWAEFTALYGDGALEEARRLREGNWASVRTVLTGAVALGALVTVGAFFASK", "details": "cited from earlier work"}, "H345 xenograft": {"tested_on": "H345 xenograft", "details": "100 mg/kg/day, H345 xenograft model; cited from earlier work"}, "H146": {"tested_on": "H146", "test": "In vitro anti-proliferation assay (ATPlite) in BCL-XL-dependent small cell lung cancer cell line H146", "format": "cell-based", "details": "for IC50: Homo sapiens, NCI-H146, about 72 hours, 5% FBS", "protocol": "(§1) Cell antiproliferation is assayed by PerkinElmer ATPlite™ Luminescence Assay System. Briefly, the various test cancer cell lines are plated at a density of about 1×10^4 cells per well in Costar 96-well plates, and are incubated with different concentrations of compounds for about 72 hours in medium supplemented with 5% FBS. One lyophilized substrate solution vial is then reconstituted by adding 5 mL of substrate buffer solution, and is agitated gently until the solution is homogeneous. About 50 μL of mammalian cell lysis solution is added to 100 μL of cell suspension per well of a microplate, and the plate is shaken for about five minutes in an orbital shaker at ˜700 rpm. This procedure is used to lyse the cells and to stabilize the ATP. Next, 50 μL substrate solution is added to the wells and microplate is shaken for five minutes in an orbital shaker at ˜700 rpm. Finally, the luminescence is measured by a PerkinElmer TopCount® Microplate Scintillation Counter. Such assays, carried out with a range of doses of test compounds, allow the determination of the cellular anti-antiproliferative IC50 of the compounds of the present invention."}, "circulating platelets": {"tested_on": "circulating platelets", "details": "clinical trial, patients; cited from earlier work"}, "SCLC H146 cell line": {"tested_on": "SCLC H146 cell line", "details": "read-out: IC50 against SCLC H146 cell line; cited from earlier work"}, "[1]": {"tested_on": "xenograft models of small-cell lung cancer and acute lymphoblastic leukemia", "details": "single agent; cited from earlier work"}, "[2]": {"details": "cited from earlier work"}, "[3]": {"details": "cited from earlier work", "remark": "listed apart in the source"}, "Bcl-2": {"molecular_target": "Bcl-2 (Homo sapiens (Human), UniProt P10415)", "sequence (P10415 whole entry)": "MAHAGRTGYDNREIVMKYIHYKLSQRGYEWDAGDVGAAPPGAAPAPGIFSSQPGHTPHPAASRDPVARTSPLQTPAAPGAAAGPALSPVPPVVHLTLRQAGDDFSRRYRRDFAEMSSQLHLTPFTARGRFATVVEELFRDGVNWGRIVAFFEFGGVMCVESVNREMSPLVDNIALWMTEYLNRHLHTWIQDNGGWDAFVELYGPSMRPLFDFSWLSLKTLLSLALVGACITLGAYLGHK", "test": "Bcl-2 competition binding (fluorescence polarization) assay", "details": "BH3 peptide, 3 hours incubation at room temperature", "protocol": "Biological Example 1: Bcl-2 Competition Binding (Fluorescence Polarization) Assay\nThis binding assay was performed in 96-well plate and with each assay contained 15 and 30 nM of labeled peptide and purified Bcl-2 protein (purchased from R&D Systems, Inc). The assay buffer contained 20 mM Hepes (pH 7.0), 50 mM KCl, 5 mM MgCl2, 20 mM Na2MoO4, 0.1 mg/ml Bovine Gamma Globulin and 0.01% NP40. Compounds were diluted in DMSO and added to the final assay with concentration range from 20 uM to 2 nM. The polarization degree (mP) value was determined by BioTek Synergy II with background subtraction after 3 hours of incubation at room temperature. IC50 was calculated using Prism software with sigmoidal dose-response curve fitting. ABT-737 was used as reference compound. Such assays, carried out with a range of doses of test compounds, allow the determination of an approximate IC50 value."}, "RS4;11": {"tested_on": "RS4;11", "test": "In vitro anti-proliferation assay (ATPlite) in BCL-2-dependent acute lymphoblastic leukemia cell line RS4;11", "format": "cell-based", "details": "Homo sapiens, about 72 hours, 5% FBS", "protocol": "Biological Example 2: In Vitro Anti-Proliferation Assay in BCL-2-Dependent Acute Lymphoblastic Leukemia Cell Line RS4;11\nas §1, with “invention. The following table lists the IC50 values of certain compounds of the invention.” for “invention.”"}},
  "data": [
    {"smiles": "CC1(C)CCC(c2ccc(Cl)cc2)=C(CN2CCN(c3ccc(C(=O)NS(=O)(=O)c4ccc(N[C@H](CCN5CCOCC5)CSc5ccccc5)c(S(=O)(=O)C(F)(F)F)c4)cc3)CC2)C1", "note": "[ABT-263]", "values": [
      {"measurement": "Ki", "setting": "Bcl-w", "value": "≤ 1", "unit": "nM"},
      {"measurement": "TGI", "setting": "H345 xenograft", "value": 80, "unit": "%"},
      {"measurement": "treated tumors indicating at least a 50% reduction in tumor volume", "setting": "H345 xenograft", "value": 20, "unit": "%"},
      {"measurement": "IC50", "setting": "H146", "value": 60, "unit": "nM"},
      {"measurement": "effect on number of circulating platelets", "setting": "circulating platelets", "value": "rapid, concentration-dependent decrease"},
      {"measurement": "IC50", "setting": "SCLC H146 cell line", "value": 110, "unit": "nM"},
      {"measurement": "tumor response, oral administration alone", "setting": "[1]", "value": "complete tumor regressions"}
    ]},
    {"smiles": "CN(C)CC[C@H](CSc1ccccc1)Nc1ccc(S(=O)(=O)NC(=O)c2ccc(N3CCN(Cc4ccccc4-c4ccc(Cl)cc4)CC3)cc2)cc1[N+](=O)[O-]", "note": "[ABT-737]", "values": [
      {"measurement": "aqueous solubility", "setting": "[2]", "value": "low"},
      {"measurement": "oral bioavailability", "setting": "[3]", "value": "not orally bioavailable"}
    ]},
    {"smiles": "CC1(C)CCC(CN2CCN(c3ccc(C(=O)NS(=O)(=O)c4ccc(NCC5CCOCC5)c([N+](=O)[O-])c4)c(-n4ncc5nc6[nH]ccc6cc54)c3)CC2)=C(c2ccc(Cl)cc2)C1", "note": "[Example 4, 4-(4-((4′-chloro-5,5-dimethyl-3,4,5,6-tetrahydro-[1,1′-biphenyl]-2-yl)methyl)piperazin-1-yl)-N-((3-nitro-4-(((tetrahydro-2H-pyran-4-yl)methyl)amino)phenyl)sulfonyl)-2-(pyrazolo[4,3-b]pyrrolo[3,2-e]pyridin-1(5H)-yl)benzamide]", "values": [
      {"measurement": "BCL-2 selectivity concluded from H146 IC50", "setting": "H146; BCL-XL dependent cell line H146", "value": "BCL-2 selective inhibitor"},
      {"measurement": "IC50", "setting": "H146", "value": "> 2000", "unit": "nM"},
      {"measurement": "IC50", "setting": "Bcl-2", "value": "< 10", "unit": "nM"},
      {"measurement": "IC50", "setting": "RS4;11", "value": "< 15", "unit": "nM"}
    ]},
    {"smiles": "CC1(C)CCC(CN2CCN(c3ccc(C(=O)NS(=O)(=O)c4ccc(N5CCOCC5)c([N+](=O)[O-])c4)c(-n4ncc5nc6[nH]ccc6cc54)c3)CC2)=C(c2ccc(Cl)cc2)C1", "note": "[Example 8, 4-(4-((4′-chloro-5,5-dimethyl-3,4,5,6-tetrahydro-[1,1′-biphenyl]-2-yl)methyl)piperazin-1-yl)-N-((4-morpholino-3-nitrophenyl)sulfonyl)-2-(pyrazolo[4,3-b]pyrrolo[3,2-e]pyridin-1(5H)-yl)benzamide]", "values": [
      {"measurement": "IC50", "setting": "Bcl-2", "value": "< 10", "unit": "nM"}
    ]},
    {"smiles": "CC1(C)CCC(CN2CCN(c3ccc(C(=O)NS(=O)(=O)c4ccc(SCC5CCOCC5)c([N+](=O)[O-])c4)c(-n4ncc5nc6[nH]ccc6cc54)c3)CC2)=C(c2ccc(Cl)cc2)C1", "note": "[Example 11, 4-(4-((4′-chloro-5,5-dimethyl-3,4,5,6-tetrahydro-[1,1′-biphenyl]-2-yl)methyl)piperazin-1-yl)-N-((3-nitro-4-(((tetrahydro-2H-pyran-4-yl)methyl)thio)phenyl)sulfonyl)-2-(pyrazolo[4,3-b]pyrrolo[3,2-e]pyridin-1(5H)-yl)benzamide]", "values": [
      {"measurement": "IC50", "setting": "Bcl-2", "value": "< 10", "unit": "nM"}
    ]},
    {"smiles": "CC1(C)CCC(CN2CCN(c3ccc(C(=O)NS(=O)(=O)c4ccc(NCC5(F)CCOCC5)c([N+](=O)[O-])c4)c(-n4ncc5nc6[nH]ccc6cc54)c3)CC2)=C(c2ccc(Cl)cc2)C1", "note": "[Example 12, 4-(4-((4′-chloro-5,5-dimethyl-3,4,5,6-tetrahydro-[1,1′-biphenyl]-2-yl)methyl)piperazin-1-yl)-N-((4-(((4-fluorotetrahydro-2H-pyran-4-yl)methyl)amino)-3-nitrophenyl)sulfonyl)-2-(pyrazolo[4,3-b]pyrrolo[3,2-e]pyridin-1(5H)-yl)benzamide]", "values": [
      {"measurement": "IC50", "setting": "H146", "value": "> 2000", "unit": "nM"},
      {"measurement": "IC50", "setting": "Bcl-2", "value": "< 10", "unit": "nM"},
      {"measurement": "IC50", "setting": "RS4;11", "value": "< 15", "unit": "nM"}
    ]},
    {"smiles": "CN1CCC(CNc2ccc(S(=O)(=O)NC(=O)c3ccc(N4CCN(CC5=C(c6ccc(Cl)cc6)CC(C)(C)CC5)CC4)cc3-n3ncc4nc5[nH]ccc5cc43)cc2[N+](=O)[O-])CC1", "note": "[Example 13, 4-(4-((4′-chloro-5,5-dimethyl-3,4,5,6-tetrahydro-[1,1′-biphenyl]-2-yl)methyl)piperazin-1-yl)-N-((4-(((1-methylpiperidin-4-yl)methyl)amino)-3-nitrophenyl)sulfonyl)-2-(pyrazolo[4,3-b]pyrrolo[3,2-e]pyridin-1(5H)-yl)benzamide]", "values": [
      {"measurement": "IC50", "setting": "Bcl-2", "value": "< 10", "unit": "nM"}
    ]},
    {"smiles": "CC1(C)CCC(CN2CCN(c3ccc(C(=O)NS(=O)(=O)c4ccc(NCC5(F)CCN(C6COC6)CC5)c([N+](=O)[O-])c4)c(-n4ncc5nc6[nH]ccc6cc54)c3)CC2)=C(c2ccc(Cl)cc2)C1", "note": "[Example 14, 4-(4-((4′-chloro-5,5-dimethyl-3,4,5,6-tetrahydro-[1,1′-biphenyl]-2-yl)methyl)piperazin-1-yl)-N-((4-(((4-fluoro-1-(oxetan-3-yl)piperidin-4-yl)methyl)amino)-3-nitrophenyl)sulfonyl)-2-(pyrazolo[4,3-b]pyrrolo[3,2-e]pyridin-1(5H)-yl)benzamide]", "values": [
      {"measurement": "IC50", "setting": "Bcl-2", "value": "< 10", "unit": "nM"}
    ]},
    {"smiles": "CC1(C)CCC(CN2CCN(c3ccc(C(=O)NS(=O)(=O)c4ccc(NC[C@@H]5CN(C6COC6)CCO5)c([N+](=O)[O-])c4)c(-n4ncc5nc6[nH]ccc6cc54)c3)CC2)=C(c2ccc(Cl)cc2)C1", "note": "[Example 15, (R)-4-(4-((4′-chloro-5,5-dimethyl-3,4,5,6-tetrahydro-[1,1′-biphenyl]-2-yl)methyl)piperazin-1-yl)-N-((3-nitro-4-(((4-(oxetan-3-yl)morpholin-2-yl)methyl)amino)phenyl)sulfonyl)-2-(pyrazolo[4,3-b]pyrrolo[3,2-e]pyridin-1(5H)-yl)benzamide]", "values": [
      {"measurement": "IC50", "setting": "Bcl-2", "value": "< 10", "unit": "nM"}
    ]},
    {"smiles": "CN1CCC(F)(CNc2ccc(S(=O)(=O)NC(=O)c3ccc(N4CCN(CC5=C(c6ccc(Cl)cc6)CC(C)(C)CC5)CC4)cc3-n3ncc4nc5[nH]ccc5cc43)cc2[N+](=O)[O-])CC1", "note": "[Example 16, 4-(4-((4′-chloro-5,5-dimethyl-3,4,5,6-tetrahydro-[1,1′-biphenyl]-2-yl)methyl)piperazin-1-yl)-N-((4-(((4-fluoro-1-methylpiperidin-4-yl)methyl)amino)-3-nitrophenyl)sulfonyl)-2-(pyrazolo[4,3-b]pyrrolo[3,2-e]pyridin-1(5H)-yl)benzamide]", "values": [
      {"measurement": "IC50", "setting": "Bcl-2", "value": "< 10", "unit": "nM"}
    ]},
    {"smiles": "CC1(C)CCC(CN2CCN(c3ccc(C(=O)NS(=O)(=O)c4ccc(OCC5(F)CCN(C6COC6)CC5)c([N+](=O)[O-])c4)c(-n4ncc5nc6[nH]ccc6cc54)c3)CC2)=C(c2ccc(Cl)cc2)C1", "note": "[Example 17, 4-(4-((4′-chloro-5,5-dimethyl-3,4,5,6-tetrahydro-[1,1′-biphenyl]-2-yl)methyl)piperazin-1-yl)-N-((4-((4-fluoro-1-(oxetan-3-yl)piperidin-4-yl)methoxy)-3-nitrophenyl)sulfonyl)-2-(pyrazolo[4,3-b]pyrrolo[3,2-e]pyridin-1(5H)-yl)benzamide]", "values": [
      {"measurement": "IC50", "setting": "Bcl-2", "value": "< 10", "unit": "nM"}
    ]},
    {"smiles": "CC1(C)CCC(CN2CCN(c3ccc(C(=O)NS(=O)(=O)c4ccc(OCC5CCOCC5)c([N+](=O)[O-])c4)c(-n4ncc5nc6[nH]ccc6cc54)c3)CC2)=C(c2ccc(Cl)cc2)C1", "note": "[Example 18, 4-(4-((4′-chloro-5,5-dimethyl-3,4,5,6-tetrahydro-[1,1′-biphenyl]-2-yl)methyl)piperazin-1-yl)-N-((3-nitro-4-((tetrahydro-2H-pyran-4-yl)methoxy)phenyl)sulfonyl)-2-(pyrazolo[4,3-b]pyrrolo[3,2-e]pyridin-1(5H)-yl)benzamide]", "values": [
      {"measurement": "IC50", "setting": "Bcl-2", "value": "< 10", "unit": "nM"}
    ]}
  ]
}
